Measured values reported in patent US20220025003A1, “REAGENTS AND METHODS FOR CONTROLLING PROTEIN FUNCTION AND INTERACTION” (University of Washington, priority 2018, published 2022).

Assays:
GFP, CD95 and CXCR4 = test: 3-gene experiment (GFP, CD95, CXCR4) by RT-qPCR; assay type: cell-based; conditions: 10 μM danoprevir, 1 μM grazoprevir, 1 μM asunaprevir
Source text: Cells were harvested on day 5 as described above for other samples to be analyzed to qPCR.

NS3a = conditions: read-out: NS3a:drug Ki; published enzyme inhibition studies; cited from earlier work
CXCR4 = test: Danoprevir/grazoprevir titrations to linearize CXCR4 or CD95 expression; assay type: cell-based, human; conditions: increasing proportion of grazoprevir added to danoprevir titration
Source text: Data were fit to four-parameter log dose-response curves (fitting EC50, upper and lower baselines, and Hill coefficient) in Graphpad Prism 5.

GFP reporter = test: Combined CXCR4 and GFP induction with scRNAs, NS3a-VPR; assay type: cell-based; conditions: read-out: EC50 (GFP expression)
[1] = tested on: RAS/ERK pathway in HEK293 cells; test: Activation of NS3a-CDAR, phospho-ERK blot; assay type: cell-based; conditions: 10 μM drug, 60 min
Procedure: 18-24 hours prior to transfection, 3.0×10^5 HEK293 cells were plated onto poly-D-lysine 12 well plates. Immediately prior to transfection, media was aspirated and cells were washed with 1 mL of pre-warmed (37° C.) PBS, then serum starved with FBS-free DMEM. Following serum starvation, cells were transfected with 1 μg of FLAG-tagged NS3a-CDAR, BH3-NS3a-CDAR, or an empty pCDNA5 vector. Transfected cells were allowed to serum stave for 18-20 hours prior to drug treatment. For drug treatment, serum-free media was prepared with DMSO or 10 μM of a drug. Media was aspirated, washed once with pre-warmed DPBS, then treated with drug/DMSO media for the requisite amount of time. Media was subsequently aspirated and the cells were washed twice with 1 mL chilled PBS, then lysed with 75 μL Mod. RIPA buffer (50 mM Tris, pH 7.8, 1% IGEPAL CA-630, 150 mM NaCl, 1 mM EDTA, 2 mM Na3VO4, 30 mM NaF, Pierce Protease Inhibitor Tablet). Cleared lysates were subjected to SDS-PAGE and transferred to nitrocellulose. Blocking and antibody incubations were done in TBS with 0.1% Tween-20 (v/v) and blocking buffer (Odyssey). Primary antibodies were all purchased from Cell Signaling Technologies and were diluted as follows: Total ERK (1:2500, #9107), phosphorylated ERK (1:2500, #4370), FLAG (1:2,500, #D6W5B). Blots were washed three times in TBS with 0.1% Tween-20. Antibody binding was detected by using near-infrared-dye-conjugated secondary antibodies and visualized on the LI-COR Odyssey scanner. Blots were quantified via densitometry with Image Studio (LI-COR).

NS3a in NIH3T3 cells = test: Confocal microscopy for colocalization analysis (fixed cells); assay type: cell-based; conditions: 5 μM drug
NS3a active = molecular target: T1, NS3a active (Hepatitis C virus genotype 1b, UniProt Q9WMX2, A1176V/E1056D/L1047A/L1120M/Q1112P/R1052K/V1062L/V1196I); test: Fluorescence polarization competition assay with FAM-ANR; assay type: binding
T1 construct: Avi-His6-NS3a; made in house; host or cells: E. coli BL21 (DE3)
Procedure: (§1) Fluorescence polarization competition assays were used to determine the ability of danoprevir to displace ANR. A 75 nM solution of NS3a in FP-Buffer was incubated with 50 nM FAM-ANR in a black 96-well plate for 1 hour in the dark. 3-fold serial dilutions of danoprevir were prepared in FP-Buffer such that, when added to the NS3a/FAM-ANR solution, the highest concentration of danoprevir tested was 10 μM. Plates were incubated for 1 hour in the dark. Fluorescence polarization was measured at 22° C. on a Perkin Elmer EnVision™ fluorometer (excitation, 495 nm; emission 520 nm). Each measurement was carried out in triplicate. Anisotropy values were obtained and a nonlinear regression model was used to fit curves with GraphPad Prism.

NS3a inactive (S139A) = molecular target: T2, NS3a inactive (S139A) (Hepatitis C virus genotype 1b, UniProt Q9WMX2, A1176V/E1056D/L1047A/L1120M/Q1112P/R1052K/S1165A/V1062L/V1196I); test: as above; assay type: binding; conditions: 75 nM NS3a, read-out: apparent IC50
T2 construct: Avi-His6-NS3a; the text calls the FP protein non-biotinylated) (N); made in house; host or cells: E. coli BL21 (DE3)
Procedure: as §1

NS3a inactive = test: ANR-GST pulldown with immobilized biotinylated NS3a; assay type: binding, hepatitis C virus; conditions: 10 μM danoprevir, 5 μM ANR-GST
Procedure: Pierce high-capacity streptavidin beads (Thermo-Fisher #P120359) were prepared by washing three times with Buffer PDA (TBS+0.05% tween+0.5 mg/mL BSA). For each condition and each replicate, beads were washed and incubated separately. The wash was performed by adding 200 μL Buffer PDA to 30 μL of a 50/50 bead slurry, inverting to mix, and spinning down (2500×g for 2 min). The supernatant was removed by pipetting, and the wash was repeated two more times to end with a 50/50 slurry of beads in wash buffer.
Purified biotinylated NS3a was prepared at a 50× final concentration and 10 μL were added to a 490 μL 50/50 slurry of streptavidin beads and Buffer PD for final NS3a concentration of 125 nM. Beads were incubated and rotated at 4° C. After one hour, beads were harvested and washed three times as described previously, ending in a 50/50 bead/buffer slurry. ANR was added to all samples at a final concentration of 5 μM. For the danoprevir treated samples, danoprevir was added to a final concentration of 10 μM. Buffer PD was added to a final volume of 500 μL, and the beads were incubated and rotated at 4° C. After 1 hour, beads were pelleted and washed three times in Buffer FDB (TBS buffer+0.05% Tween) with 5 minute incubations between washes on a rotator at 4° C. To obtain final bound protein, beads were pelleted and supernatant was aspirated, resulting in a final volume of beads of 20 μL. […]

CC(C)(C)OC(=O)N[C@H]1CCCCC/C=C\[C@@H]2C[C@@]2(C(=O)NS(=O)(=O)C2CC2)NC(=O)[C@@H]2C[C@@H](OC(=O)N3Cc4cccc(F)c4C3)CN2C1=O [danoprevir]
transcriptional output state in 3-gene system (GFP, CD95 and CXCR4): CD95 expression under control of DNCR2 | Ki (NS3a): 1 nM | linear output range of CXCR4 expression (CXCR4): 3 orders of magnitude | EC50 (GFP reporter): 0.79 nM | phospho-ERK levels in cells expressing NS3a-CDAR [1]: robust increase in phospho-ERK levels | Colocalization of DNCR2-EGFP and GNCR1-BFP with NS3a-mCherry-CAAX (NS3a in NIH3T3 cells): DNCR2/NS3a colocalization | Localization of NS3a-mCherry with Tom20-BFP-ANR and DNCR2-EGFP-CAAX (NS3a in NIH3T3 cells): moved to the plasma membrane | Colocalization of NS3a-mCherry with ANR-BFP-CAAX or NLS-DNCR2-EGFP (NS3a in NIH3T3 cells; 15 min): recruited NS3a to the nucleus with NLS-DNCR2-EGFP | Colocalization of NS3a-mCherry with GNCR1-BFP-CAAX or Tom20-DNCR2-EGFP (NS3a in NIH3T3 cells; 15 min): led to colocalization with mitochondria-targeted Tom20-DNCR2-EGFP | displacement of ANR from NS3a (NS3a active): potently and dose-dependently displace ANR from NS3a | IC50 (NS3a active; NS3a active, 75 nM NS3a, FAM-ANR, read-out: apparent IC50): < 75 nM | IC50 (NS3a inactive (S139A)): < 75 nM | pull down of ANR-GST by immobilized NS3a inactive (NS3a inactive): inhibits the ability of immobilized NS3a inactive to pull down ANR-GST
